Experimental data: the NIST ThermoML archive (doi:10.1016/j.fluid.2006.10.023)
Where “and” joins values, the source holds several entries; their conditions need not be identical. Equal values may be shown once. ± gives the expanded uncertainty stated by the source.

Settings: Liquid, Closed cell (Static) method

Row | Structure (SMILES) | vapor or sublimation pressure (253.15 K) | vapor or sublimation pressure (273.15 K) | vapor or sublimation pressure (293.15 K)
1 | C1CC1 [cyclopropane] | 171.3 ± 2.1 kPa and 171.2 ± 2.1 kPa | 344.1 ± 2.3 kPa and 344.7 ± 2.3 kPa | 631.7 ± 2.8 kPa and 632.2 ± 2.8 kPa
2 | FCC(F)(F)F [1,1,1,2-tetrafluoroethane] | 133.5 ± 2.1 kPa | 291.8 ± 2.2 kPa | 572.1 ± 2.6 kPa
3 | FC(F)C(F)(F)F [pentafluoroethane] | 337.3 ± 2.3 kPa | 672.1 ± 2.9 kPa | 1204.7 ± 4.1 kPa
